Test results taken from BigSolDB 2.1.

CC(C)(C)NCC(O)c1ccc(O)c(CO)c1 (stereo not given)
solubility (mole fraction)
Conditions	in acetone	in ethanol	in ethyl acetate	in isobutanol	in isopropanol	in methanol	in methyl acetate	in n-butanol	in n-propanol	in sec-butanol
283.15 K	0.000146	0.00218	0.000185	0.00154	0.00185	0.00599	0.000377	0.00109	0.00212	0.00102
288.15 K	0.000162	0.00228	0.000204	0.00172	0.00205	0.00671	0.00041	0.0012	0.00235	0.00115
293.15 K	0.000185	0.00271	0.000231	0.00192	0.00244	0.00745	0.000441	0.00134	0.00267	0.00131
298.15 K	0.000211	0.00323	0.000261	0.00217	0.00278	0.00824	0.000471	0.00151	0.00317	0.00145
303.15 K	0.000237	0.00412	0.00029	0.00243	0.00331	0.00909	0.000509	0.00168	0.0036	0.00163
308.15 K	0.000271	0.0049	0.000323	0.00272	0.00382	0.0101	0.000545	0.00187	0.00413	0.00182
313.15 K	0.000302	0.00585	0.000363	0.00304	0.00441	0.0112	0.00059	0.00211	0.00479	0.00202
318.15 K	0.000346	0.00709	0.000399	0.00343	0.00512	0.0124	0.000631	0.00233	0.00552	0.00227
323.15 K	0.000396	0.00846	0.000452	0.00385	0.00597	0.0137	0.000682	0.00262	0.00634	0.00252
328.15 K	0.000451	0.0103	0.000501	0.00432	0.00698	0.0152	0.000735	0.00292	0.00743	0.00286
